# “Also recorded” adds a separate entry of the source. Like-named read-outs stand apart in the source and are kept apart here.
# Assays:
# EoblOBP6 [1] = biological target: T1, EoblOBP6 (Ectropis obliqua, UniProt A0A1L2BL92); assay: Fluorescence competitive binding assay (displacement of 1-NPN from recombinant EoblOBP6)
# Experimental: (§1) Fluorescence binding assays were performed on a fluorescence spectrophotometer F-380 (Tianjin, China) with a 1 cm light path quartz cuvette and 10 nm slits for excitation and emission. The excitation wavelength was set at 337 nm, and the emission spectrum was recorded between 390 and 500 nm. Both the fluorescent probe N-phenyl-1-naphthylamine (1-NPN) and the tested chemicals were dissolved in methanol in preparation for 1 mM stock solution. […] The fluorescence intensities at the maximum fluorescence emission were plotted against the free ligand concentration to determine the binding constants. The bound ligand was evaluated from the fluorescence intensity in the assumption of the protein was 100% dynamic, with a stoichiometry of 1:1 (protein: ligand) at saturation. The binding curves were linearized using Scatchard Plot.
# EoblOBP6 [2] = biological target: T1, EoblOBP6; assay: Fluorescence binding assay of probe 1-NPN with recombinant EoblOBP6 (titration, Scatchard plot)
# Experimental: as §1, with “For the ligand binding assays, the tested compounds, including terpenoids, tea volatiles, herbivore-induced plant volatiles and non-volatile tastants, were selected according to the previously reported isolation from the E. obliqua host plant and non-host plant ([Sun X.L. et al., 2014]; [Zhang Z. et al., 2015]). Fluorescence” for “Fluorescence”, “saturation. […]” for “saturation.”, “dissociation constants of competitors” for “binding curves”, “calculated from the corresponding IC50 values following the equation: Ki = (IC50)/(1+(1-NPN)/K1-NPN), where (1-NPN) is the free concentration of 1-NPN and K1-NPN is the dissociation constant of the protein/1-NPN complex.” for “linearized using Scatchard Plot.”
# antennae of E. obliqua = tested on: antennae of E. obliqua; parameters: method as in Zhang Z. et al., 2015; conditions: ref Zhang Z. et al., 2015; cited from earlier work
# [3] = Table 2 non-volatile tastants, calculated from IC50: Ki = (IC50)/(1+(1-NPN)/K1-NPN)
# [4] = Table 2 non-volatile tastants, competitor 2 to 30 μM, 1-NPN and EoblOBP6 both at 2 μM
# [5] = Table 1 volatiles, calculated from IC50: Ki = (IC50)/(1+(1-NPN)/K1-NPN)
# [6] = Table 1 volatiles, calculated from IC50: Ki = (IC50)/(1+(1-NPN)/K1-NPN), read-out: Ki
# [7] = Table 1 volatiles, competitor titrated 2 to 30 μM into 1-NPN and EoblOBP6 both at 2 μM, 50 mM Tris-HCl pH 7.4, read-out: IC50
# T1 sequence (A0A1L2BL92 entry or part of it): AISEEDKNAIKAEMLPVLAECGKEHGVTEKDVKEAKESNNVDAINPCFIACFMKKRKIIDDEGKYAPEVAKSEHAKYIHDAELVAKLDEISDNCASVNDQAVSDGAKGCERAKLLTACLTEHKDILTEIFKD
structure (smiles),measurement,setting,value
"CN1[C@@H]2CC[C@H]1C[C@@H](OC(=O)C(CO)c1ccccc1)C2 (some centres unmarked) [Atropine, reference compound]",Ki,EoblOBP6 [1]; [3],u.d.
same,IC50,EoblOBP6 [1]; [4],u.d.
CC/C=C\CCOC(C)=O [(Z)-3-hexenyl acetate],Ki,EoblOBP6 [1]; [5],u.d.
"c1ccc(Nc2cccc3ccccc23)cc1 [1-NPN, N-phenyl-1-naphthylamine]",Kd,EoblOBP6 [2],2.7 ± 0.24 µM
COC(=O)c1ccccc1O [Methyl salicylate],Ki,EoblOBP6 [1]; [5],u.d.
c1ccc2[nH]ccc2c1 [Indole],Ki,EoblOBP6 [1]; [5],u.d.
OCc1ccccc1O[C@@H]1O[C@H](CO)[C@@H](O)[C@H](O)[C@H]1O [D(-)-Salicin],Ki,EoblOBP6 [1]; [3],u.d.
same,IC50,EoblOBP6 [1]; [4],u.d.
CC1=CC(=O)[C@@H]2C[C@H]1C2(C)C [Verbenone],Ki,EoblOBP6 [1]; [5],u.d.
CC(=O)/C=C/C1=C(C)CCCC1(C)C [β-Ionone],Ki,EoblOBP6 [1]; [5],u.d.
O=Cc1ccccc1 [Benzaldehyde],IC50,EoblOBP6 [1],21.6 ± 0.84 µM
same,Ki,EoblOBP6 [1],15.1 ± 0.58 µM
C=CC(C)(O)CCC=C(C)CCC=C(C)C (mixture of isomers) [Nerolidol],IC50,EoblOBP6 [1],15.6 ± 0.76 µM
same,Ki,EoblOBP6 [1],10.9 ± 0.53 µM
same,binding ability to EoblOBP6 in words,EoblOBP6 [1],high binding ability
OC[C@H]1O[C@@](CO)(O[C@H]2O[C@H](CO)[C@@H](O)[C@H](O)[C@H]2O)[C@@H](O)[C@@H]1O [D-Sucrose],Ki,EoblOBP6 [1]; [3],u.d.
same,IC50,EoblOBP6 [1]; [4],u.d.
CC/C=C\CCOC(=O)CCC [(Z)-3-hexenyl butyrate],Ki,EoblOBP6 [1]; [5],u.d.
CC1=CCC2CC1C2(C)C (stereo not drawn) [α-Pinene],Ki,EoblOBP6 [1]; [5],u.d.
"Cn1c(=O)c2c(ncn2C)n(C)c1=O [Caffeine, reference compound]",Ki,EoblOBP6 [1]; [3],u.d.
same,IC50,EoblOBP6 [1]; [4],u.d.
N[C@@H](Cc1c[nH]cn1)C(=O)O [L-Histidine],Ki,EoblOBP6 [1]; [3],u.d.
same,IC50,EoblOBP6 [1]; [4],u.d.
N#CCc1ccccc1 [Benzyl nitrile],Ki,EoblOBP6 [1]; [5],u.d.
CCCCCCO [1-Hexanol],binding ability to EoblOBP6 in words,EoblOBP6 [1],could hardly bind
same,Ki,EoblOBP6 [1]; [5],u.d.
CCCCCCCCC=O [Nonanal],Ki,EoblOBP6 [1]; [5],u.d.
"Cn1c(=O)c2[nH]cnc2n(C)c1=O [Theophylline, reference compound]",Ki,EoblOBP6 [1]; [3],u.d.
same,IC50,EoblOBP6 [1]; [4],u.d.
CC/C=C\CCOC(=O)CCCCC [(Z)-3-hexenyl hexanoate],Ki,EoblOBP6 [1]; [5],u.d.
CC1=CC=C(C(C)C)CC1 [α-Terpinene],IC50,EoblOBP6 [1],26.2 ± 0.53 µM
same,Ki,EoblOBP6 [1],18.3 ± 0.37 µM
same,electrophysiological responses from the antennae,antennae of E. obliqua,strong electrophysiological responses
CCCCCCOC(C)=O [Hexyl acetate],binding ability to EoblOBP6 in words,EoblOBP6 [1],could hardly bind
same,Ki,EoblOBP6 [1]; [5],u.d.
O=C[C@H](O)[C@@H](O)[C@H](O)CO [D-Xylose],Ki,EoblOBP6 [1]; [3],u.d.
same,IC50,EoblOBP6 [1]; [4],u.d.
CC/C=C\CC=O [(Z)-3-hexenal],Ki,EoblOBP6 [1]; [5],u.d.
CC1=C[C@H](O)[C@H]2C[C@@H]1C2(C)C (relative stereo) [cis-Verbenol],Ki,EoblOBP6 [1]; [5],u.d.
C=CC(=C)CCC=C(C)C [β-Myrcene],Ki,EoblOBP6 [1]; [5],u.d.
C=C(C)[C@H]1CC=C(C)CC1 [Limonene],Ki,EoblOBP6 [1]; [5],u.d.
C=C1[C@H]2CC[C@H](C2)C1(C)C [(+)-Camphene],Ki,EoblOBP6 [1]; [5],u.d.
CCC/C=C/C=O [(E)-2-hexenal],Ki,EoblOBP6 [1]; [5],u.d.
CC12CCC(CC1=O)C2(C)C (centres unmarked) [Camphor],Ki,EoblOBP6 [1]; [5],u.d.
OCc1ccccc1 [Benzyl alcohol],Ki,EoblOBP6 [1]; [5],u.d.
C=C1CCC2CC1C2(C)C (stereo not drawn) [(-)-β-Pinene],Ki,EoblOBP6 [1]; [5],u.d.
C/C1=C\CC/C(C)=C/CC(C)(C)/C=C/C1 [α-Caryophyllene],Ki,EoblOBP6 [1]; [6],15.6 ± 0.19 µM
same,IC50,EoblOBP6 [1]; [7],22.4 ± 0.27 µM
COc1ccc2cc3[n+](cc2c1OC)CCc1cc2c(cc1-3)OCO2 [Berberine],IC50,EoblOBP6 [1],7.94 ± 0.61 µM
same,Ki,EoblOBP6 [1],5.55 ± 0.87 µM
same,binding ability to EoblOBP6 in words,EoblOBP6 [1],tightly bound; also recorded: bind strongly
CCCCCCCCCC=O [Decanal],binding ability to EoblOBP6 in words,EoblOBP6 [1],could hardly bind
same,Ki,EoblOBP6 [1]; [5],u.d.
CC1=CCC(C(C)C)=CC1 [γ-Terpinene],Ki,EoblOBP6 [1]; [5],u.d.
OC[C@H]1OC(O)[C@H](O)[C@@H](O)[C@@H]1O (stereo partly drawn) [D-Glucose],Ki,EoblOBP6 [1]; [3],u.d.
same,IC50,EoblOBP6 [1]; [4],u.d.
OC[C@H]1O[C@H](O[C@H]2O[C@H](CO)[C@@H](O)[C@H](O)[C@H]2O)[C@H](O)[C@@H](O)[C@@H]1O [Trehalose],Ki,EoblOBP6 [1]; [3],u.d.
same,IC50,EoblOBP6 [1]; [4],u.d.
C=CC(C)(O)CCC=C(C)C (centres unmarked) [Linalool],Ki,EoblOBP6 [1]; [5],u.d.
C=C1CC/C=C(\C)CC[C@@H]2[C@@H]1CC2(C)C [β-Caryophyllene],Ki,EoblOBP6 [1]; [5],u.d.
C=C/C(C)=C/CC=C(C)C [β-Ocimene],Ki,EoblOBP6 [1]; [5],u.d.
CC/C=C\CCO [(Z)-3-hexenol],binding ability to EoblOBP6 in words,EoblOBP6 [1],could hardly bind
same,Ki,EoblOBP6 [1]; [5],u.d.
C[C@H](N)C(=O)O [L-Alanine],Ki,EoblOBP6 [1]; [3],u.d.
same,IC50,EoblOBP6 [1]; [4],u.d.
O.Oc1cc(O)c2c(c1)O[C@H](c1ccc(O)c(O)c1)[C@@H](O)C2 [Catechin],Ki,EoblOBP6 [1]; [3],u.d.
same,IC50,EoblOBP6 [1]; [4],u.d.
C=C/C(C)=C/C/C=C(\C)CCC=C(C)C [α-Farnesene],binding ability to EoblOBP6 in words,EoblOBP6 [1],high binding ability
same,Ki,EoblOBP6 [1]; [6],11 ± 0.29 µM
same,IC50,EoblOBP6 [1]; [7],15.8 ± 0.42 µM
CC1=CC[C@@H](C(C)(C)O)CC1 [α-Terpineol],Ki,EoblOBP6 [1]; [5],u.d.
